Like-named read-outs stand apart in the source and are kept apart here.
Assays:
[1] = system: HCV replicon (strain 1b) in HUH-7 cells; experiment: HCV replicon FRET assay; assay type: cell-based, Hepatitis C virus
Description: An HCV replicon whole cell system was established as described by Lohmann V, Korner F, Koch J, Herian U, Theilmann L, Bartenschlager R., Science 285(5424): 110-3 (1999). This system enabled us to evaluate the effects of our HCV Protease compounds on HCV RNA replication. Briefly, using the HCV strain 1b sequence described in the Lohmann paper (Assession number: AJ238799), an HCV cDNA was synthesized by Operon Technologies, Inc. (Alameda, Calif.), and the full-length replicon was then assembled in plasmid pGem9zf(+) (Promega, Madison, Wis.) using standard molecular biology techniques. The replicon consists of (i) the HCV 5′ UTR fused to the first 12 amino acids of the capsid protein, (ii) the neomycin phosphotransferase gene (neo), (iii) the IRES from encephalomyocarditis virus (EMCV), and (iv) HCV NS3 to NS5B genes and the HCV 3′ UTR. Plasmid DNAs were linearized with ScaI and RNA transcripts were synthesized in vitro using the T7 MegaScript transcription kit (Ambion, Austin, Tex.) according to manufacturer's directions. In vitro transcripts of the cDNA were transfected into the human hepatoma cell line, HUH-7. […] Resulting cell lines were characterized for positive and negative strand RNA production and protein production over time.
The HCV replicon FRET assay was developed to monitor the inhibitory effects of compounds described in the disclosure on HCV viral replication. HUH-7 cells, constitutively expressing the HCV replicon, were grown in Dulbecco's Modified Eagle Media (DMEM) (Gibco-BRL) containing 10% Fetal calf serum (FCS) (Sigma) and 1 mg/ml G418 (Gibco-BRL). Cells were seeded the night before (1.5×10^4 cells/well) in 96-well tissue-culture sterile plates. Compound and no compound controls were prepared in DMEM containing 4% FCS, 1:100 Penicillin/Streptomysin (Gibco-BRL), 1:100 L-glutamine and 5% DMSO in the dilution plate (0.5% DMSO final concentration in the assay). Compound/DMSO mixes were added to the cells and incubated for 4 days at 37° C. After 4 days, cells were first assessed for cytotoxicity using alamar Blue (Trek Diagnotstic Systems) for a CC50 reading. The toxicity of compound (CC50) was determined by adding 1/10th volume of alamarBlue to the media incubating the cells. After 4 hours, the fluorescence signal from each well was read, with an excitation wavelength at 530 nm and an emission wavelength of 580 nm, using the Cytofluor Series 4000 (Perspective Biosystems). Plates were then rinsed thoroughly with Phosphate-Buffered Saline (PBS) (3 times 150 μl).

[2] = target: T1, HCV NS3/4A protease complex, BMS strain (UniProt P27958, species not given/STRAIN_BMS); experiment: FRET peptide assay to monitor HCV NS3/4A proteolytic activity (BMS strain); assay type: biochemical, Hepatitis C virus (genotype 1a)
T1 construct: other: NS3/4A BMS strain; activity range class; numeric values, unit not given; said of H77 and J4L6S; fused on or other part: A three-lysine solubilising tail at the C-terminus of NS4A; A His tag is implied by the pET21b vector and Ni-NTA purification; Both are printed for the H77 and J4L6S constructs and apply to BMS by inference
Description: HCV NS3 protease complexes, derived from the BMS strain, H77 strain or J4L6S strain, were generated, as described below. These purified recombinant proteins were generated for use in a homogeneous assay (see below) to provide an indication of how effective compounds of the present disclosure would be in inhibiting HCV NS3 proteolytic activity.
Serum from an HCV-infected patient was obtained from Dr. T. Wright, San Francisco Hospital. An engineered full-length cDNA (compliment deoxyribonucleic acid) template of the HCV genome (BMS strain) was constructed from DNA fragments obtained by reverse transcription-PCR (RT-PCR) of serum RNA (ribonucleic acid) and using primers selected on the basis of homology between other genotype 1a strains. From the determination of the entire genome sequence, a genotype 1a was assigned to the HCV isolate according to the classification of Simmonds et al. (See P Simmonds, K A Rose, S Graham, S W Chan, F McOmish, B C Dow, E A Follett, P L Yap and H Marsden, J. Clin. Microbiol., 31(6), 1493-1503 (1993)). […] The infectious clones, H77 (1a genotype) and J4L6S (1b genotype) were obtained from R. Purcell (NIH) and the sequences are published in Genbank (AAB67036, see Yanagi, M., Purcell, R. H., Emerson, S. U. and Bukh, J. Proc. Natl. Acad. Sci. U.S.A. 94(16), 8738-8743 (1997); AF054247, see Yanagi, M., St Claire, M., Shapiro, M., Emerson, S. U., Purcell, R. H. and Bukh, J. Virology 244 (1), 161-172. (1998)).
NS3/4A protease complex-containing fractions were pooled and loaded on a desalting column Superdex-S200 pre-equilibrated with buffer D (25 mM HEPES, pH 7.5, 20% glycerol, 300 mM NaCl, 0.2% Triton X-100, 10 mM βME). Sample was loaded at a flow rate of 1 mL/min. NS3/4A protease complex-containing fractions were pooled and concentrated to approximately 0.5 mg/ml. The purity of the NS3/4A protease complexes, derived from the BMS, H77 and J4L6S strains, were judged to be greater than 90% by SDS-PAGE and mass spectrometry analyses. The enzyme was stored at −80° C., thawed on ice and diluted prior to use in assay buffer.
The purpose of this in vitro assay was to measure the inhibition of HCV NS3 protease complexes, derived from the BMS strain, H77 strain or J4L6S strain, as described above, by compounds of the present disclosure. This assay provides an indication of how effective compounds of the present disclosure would be in inhibiting HCV NS3 proteolytic activity.
In order to monitor HCV NS3/4A protease activity, an NS3/4A peptide substrate was used. The substrate was RET S1 (Resonance Energy Transfer Depsipeptide Substrate; AnaSpec, Inc. cat #22991) (FRET peptide), described by Taliani et al. in Anal. Biochem. 240(2):60-67 (1996). The sequence of this peptide is loosely based on the NS4A/NS4B natural cleavage site for the HCV NS3 protease except there is an ester linkage rather than an amide bond at the cleavage site. The peptide also contains a fluorescence donor, EDANS, near one end of the peptide and an acceptor, DABCYL, near the other end. The fluorescence of the peptide is quenched by […] resonance energy transfer (RET) between the donor and the acceptor, but as the NS3 protease cleaves the peptide the products are released from RET quenching and the fluorescence of the donor becomes apparent.
The peptide substrate was incubated with one of the three recombinant NS3/4A protease complexes, in the absence or presence of a compound of the present disclosure. The inhibitory effects of a compound were determined by monitoring the formation of fluorescent reaction product in real time using a Cytofluor Series 4000.
Assay buffer: 50 mM HEPES, pH 7.5; 0.15 M NaCl; 0.1% Triton; 15% Glycerol; 10 mM βME. Substrate: 2 μM final concentration (from a 2 mM stock solution in DMSO stored at −20° C.). HCV NS3/4A protease type 1a (1b), 2-3 nM final concentration (from a 5 μM stock solution in 25 mM HEPES, pH 7.5, 20% glycerol, 300 mM NaCl, 0.2% Triton-X100, 10 mM βME). […]

[3] = Hepatitis C virus, Huh-7, read-out: HCV Pro Replicon (EC50), HCV replicon cell assay, activity range class
[4] = read-out: HCV Protease (IC50); NS3/4A BMS strain; activity range class
[5] = Hepatitis C virus, Huh-7, read-out: HCV Pro Replicon (EC50), HCV replicon cell assay, numeric values, unit inferred
[6] = read-out: HCV Protease (IC50); NS3/4A BMS strain; numeric values, unit inferred
[7] = read-out: HCV Pro Replicon (EC50), HCV replicon cell assay, activity range class

T1 sequence (P27958 1027-1657, change not shown, one chain of several): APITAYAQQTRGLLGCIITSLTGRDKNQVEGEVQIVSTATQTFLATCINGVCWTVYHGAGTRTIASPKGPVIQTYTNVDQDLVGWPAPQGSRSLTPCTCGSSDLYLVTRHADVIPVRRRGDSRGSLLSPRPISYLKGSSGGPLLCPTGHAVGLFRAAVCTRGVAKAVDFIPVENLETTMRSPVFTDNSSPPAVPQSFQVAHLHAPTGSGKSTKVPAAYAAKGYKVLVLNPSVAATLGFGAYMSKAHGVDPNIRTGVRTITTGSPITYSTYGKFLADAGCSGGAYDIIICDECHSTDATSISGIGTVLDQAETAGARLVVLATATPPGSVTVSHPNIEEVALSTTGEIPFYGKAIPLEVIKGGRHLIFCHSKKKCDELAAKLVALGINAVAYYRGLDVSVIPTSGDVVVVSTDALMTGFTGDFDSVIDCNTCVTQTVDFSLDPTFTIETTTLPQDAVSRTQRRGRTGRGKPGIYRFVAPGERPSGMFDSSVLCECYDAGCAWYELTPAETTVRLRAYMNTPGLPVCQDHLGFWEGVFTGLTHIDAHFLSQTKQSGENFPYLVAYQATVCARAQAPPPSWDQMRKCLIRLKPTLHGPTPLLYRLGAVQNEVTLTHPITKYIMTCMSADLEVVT

Compound: C=C[C@@H]1C[C@]1(NC(=O)[C@@H]1C[C@@H](Oc2nccc3cc(OC)ccc23)CN1C(=O)C(Nc1cc(C)cc(C)n1)C(C)C)C(=O)NS(=O)(=O)N(C)C (single isomer, unassigned) [Compound 16]
- EC50 [1, 3]: 0.003 to 0.1 µM
- IC50 [2, 4]: 0.0006 to 0.02 µM

Compound: C=C[C@@H]1C[C@]1(NC(=O)[C@@H]1C[C@@H](Oc2nc(N(C)C)cc3cc(OC)ccc23)CN1C(=O)C(Nc1ccccc1)C(C)(C)C)C(=O)NS(=O)(=O)C1CC1 (single isomer, unassigned) [Compound 19B]
- EC50 [1, 5]: 1.85 µM
- IC50 [2, 6]: 1 µM

Compound: C=C[C@@H]1C[C@]1(NC(=O)[C@@H]1C[C@@H](Oc2ncc(OC)c3ccc(Cl)cc23)CN1C(=O)C(Nc1cncnc1)C(C)C)C(=O)NS(=O)(=O)C1CC1 (single isomer, unassigned) [Compound 24A]
- EC50 [1, 5]: 0.593 µM
- IC50 [2, 6]: 0.026 µM

Compound: C=C[C@@H]1C[C@]1(NC(=O)[C@@H]1C[C@@H](Oc2ncc(OC)c3ccc(Cl)cc23)CN1C(=O)C(Nc1ccc(C)nc1)C(C)(C)C)C(=O)NS(=O)(=O)C1CC1 (single isomer, unassigned) [Compound 26B]
- EC50 [1, 5]: 3.19 µM
- IC50 [2, 6]: 1.3 µM

Compound: C=C[C@@H]1C[C@]1(NC(=O)[C@@H]1C[C@@H](Oc2ncc(OC)c3ccc(Cl)cc23)CN1C(=O)C(Nc1cncc(C(F)(F)F)c1)C(C)(C)C)C(=O)NS(=O)(=O)C1CC1 (single isomer, unassigned) [Compound 27A]
- EC50 [1, 5]: 0.00409 µM
- IC50 [2, 6]: 0.003 µM

Compound: C=C[C@@H]1C[C@]1(NC(=O)[C@@H]1C[C@@H](Oc2ncc(OC)c3ccc(Cl)cc23)CN1C(=O)C(Nc1cc(C)nc(C)c1)C(C)(C)C)C(=O)NS(=O)(=O)C1CC1 (single isomer, unassigned) [Compound 29A]
- EC50 [1, 3]: 0.1 to 1 µM
- IC50 [2, 4]: 0.0006 to 0.02 µM

Compound: C=C[C@@H]1C[C@]1(NC(=O)[C@@H]1C[C@@H](Oc2ncc(OC)c3ccc(Cl)cc23)CN1C(=O)C(Nc1cc(C)nc(C)c1)C(C)(C)C)C(=O)NS(=O)(=O)C1CC1 (single isomer, unassigned) [Compound 29B]
- EC50 [1, 5]: 14.9 µM
- IC50 [2, 6]: 0.249 µM

Compound: C=C[C@@H]1C[C@]1(NC(=O)[C@@H]1C[C@@H](Oc2ncc(OC)c3ccc(Cl)cc23)CN1C(=O)C(Nc1cc(Cl)cc(Cl)n1)C(C)(C)C)C(=O)NS(=O)(=O)C1CC1 (single isomer, unassigned) [Compound 32A]
- EC50 [1, 5]: 0.00359 µM
- IC50 [2, 6]: 0.001 µM

Compound: C=C[C@@H]1C[C@]1(NC(=O)[C@@H]1C[C@@H](Oc2ncc(OC)c3ccc(Cl)cc23)CN1C(=O)C(Nc1cc(Cl)cc(Cl)n1)C(C)(C)C)C(=O)NS(=O)(=O)C1CC1 (single isomer, unassigned) [Compound 32B]
- EC50 [1, 3]: > 1 µM
- IC50 [2, 4]: > 0.2 µM

Compound: C=C[C@@H]1C[C@]1(NC(=O)[C@@H]1C[C@@H](Oc2nc(N(C)C)cc3c(OC)cccc23)CN1C(=O)C(Nc1cccc(C)n1)C(C)(C)C)C(=O)NS(=O)(=O)C1CC1 (single isomer, unassigned) [Compound 38A]
- EC50 [1, 3]: 0.003 to 0.1 µM
- IC50 [2, 4]: 0.0006 to 0.02 µM

Compound: C=C[C@@H]1C[C@]1(NC(=O)[C@@H]1C[C@@H](Oc2nc(N(C)C)cc3c(OC)cccc23)CN1C(=O)C(Nc1cccc(C)n1)C(C)(C)C)C(=O)NS(=O)(=O)C1CC1 (single isomer, unassigned) [Compound 38B]
- EC50 [1, 5]: 7.71 µM
- IC50 [2, 6]: 5 µM

Compound: C=C[C@@H]1C[C@]1(NC(=O)[C@@H]1C[C@@H](Oc2ncc(OC)c3ccc(Cl)cc23)CN1C(=O)C(Nc1cccc(OC)c1)C(C)(C)C)C(=O)NS(=O)(=O)C1CC1 (single isomer, unassigned) [Compound 201A]
- EC50 [1, 5]: 0.00423 µM
- IC50 [2, 6]: 0.004 µM

Compound: C=C[C@@H]1C[C@]1(NC(=O)[C@@H]1C[C@@H](Oc2ncc(OC)c3ccc(Cl)cc23)CN1C(=O)C(Nc1cccc(OC)c1)C(C)(C)C)C(=O)NS(=O)(=O)C1CC1 (single isomer, unassigned) [Compound 201B]
- EC50 [1, 3]: 0.003 to 0.1 µM
- IC50 [2, 4]: 0.02 to 0.2 µM

Compound: C=CC1CC1(NC(=O)C1CC(Oc2ncc(OC)c3ccc(Cl)cc23)CN1C(=O)C(Nc1ccccc1)C(C)(C)C)C(=O)NS(=O)(=O)C1CC1 (single isomer, unassigned; isomer 3) [213 first isomer]
- EC50 [1, 7]: 0.1 to 1 µM
- IC50 [2, 4]: > 0.2 µM

Compound: C=CC1CC1(NC(=O)C1CC(Oc2ncc(OC)c3ccc(Cl)cc23)CN1C(=O)C(Nc1ccccc1)C(C)(C)C)C(=O)NS(=O)(=O)C1CC1 (single isomer, unassigned; isomer 3) [213 second isomer]
- EC50 [1, 7]: 0.003 to 0.1 µM
- IC50 [2, 4]: 0.0006 to 0.02 µM

Compound: C=C[C@@H]1C[C@]1(NC(=O)[C@@H]1C[C@@H](Oc2ncc(OC)c3ccc(Cl)cc23)CN1C(=O)[C@@H](Nc1cccc(C(=O)NC(C)(C)c2ccccc2)c1)C(C)(C)C)C(=O)NS(=O)(=O)C1CC1 (single isomer, unassigned; isomer 3) [216 first isomer]
- EC50 ([1]; HCV replicon cell assay, activity range class, read-out: HCV Pro Replicon (EC50)): 0.003 to 0.1 µM
- IC50 ([2]; NS3/4A BMS strain; activity range class; read-out: HCV Protease (IC50)): 0.0006 to 0.02 µM

From patent US7772180B2, “Hepatitis C virus inhibitors” (Bristol-Myers Squibb Company, priority 2006, dated 2010)
